# Results: BindingDB's records for doi:10.1021/jm000455z (Kissei Pharmaceutical, 2001)
# Assay: Agonistic activity towards beta-3 adrenoceptor. Mean concentration required to produce 50% relaxation of detrusor before the addition in the ferret detrusor
row,Structure (SMILES),EC50 [nM]
1,C[C@H](NCCc1cc(Cl)c(NCC(=O)O)cc1Cl)[C@H](O)c1ccc(O)cc1,61.7
2,C[C@H](NCCc1ccc(NCC(=O)O)cc1)[C@H](O)c1ccc(O)cc1,24
3,C[C@H](NCCc1ccc(NC(C)(C)C(=O)O)cc1Cl)[C@H](O)c1ccc(O)cc1,5.62
4,C[C@H](NCCc1cc(Cl)c(N(C)CC(=O)O)c(Cl)c1)[C@H](O)c1ccc(O)cc1,158
5,C[C@H](NCCc1ccc(NCC(=O)O)c(Cl)c1Cl)[C@H](O)c1ccc(O)cc1,457
6,C[C@H](NCCc1ccc(NCC(=O)O)cc1Cl)[C@H](O)c1ccc(O)cc1,7.24
7,C[C@H](NCCc1ccc(N(C)CC(=O)O)cc1)[C@H](O)c1ccc(O)cc1,52.5
8,C[C@H](NCCc1ccc(N(C)CC(=O)O)c(Cl)c1)[C@H](O)c1ccc(O)cc1,11

# Further lines, results first:
row,EC50 [nM],Structure (SMILES)
1,0.933,C[C@H](NCCc1ccc(NCC(=O)O)c(Cl)c1)[C@H](O)c1ccc(O)cc1
2,81.3,C[C@H](NCCc1cc(Br)c(NCC(=O)O)c(Br)c1)[C@H](O)c1ccc(O)cc1
3,575,C[C@H](NCCc1ccc(NCC(=O)O)c(Br)c1)[C@H](O)c1ccc(O)cc1
4,813,C[C@H](NCCc1ccc(NCC(=O)O)c(I)c1)[C@H](O)c1ccc(O)cc1
